We go through 27 compounds from US20160145257A1, “SUBSTITUTED XANTHINES AND METHODS OF USE THEREOF” (Hydra Biosciences, Inc., priority 2013, published 2016).

Where a name gives a salt, the structure may show the parent alone. Bounds are passed on as bounds.

The first test has as its target T1, hTRPC5 (Homo sapiens, UniProt Q9UL62).
T1 construct: expressed in transfected cells; host or cells: HEK293 TREx cells with inducible TRPC5 expression
T1 sequence (Q9UL62 1-973): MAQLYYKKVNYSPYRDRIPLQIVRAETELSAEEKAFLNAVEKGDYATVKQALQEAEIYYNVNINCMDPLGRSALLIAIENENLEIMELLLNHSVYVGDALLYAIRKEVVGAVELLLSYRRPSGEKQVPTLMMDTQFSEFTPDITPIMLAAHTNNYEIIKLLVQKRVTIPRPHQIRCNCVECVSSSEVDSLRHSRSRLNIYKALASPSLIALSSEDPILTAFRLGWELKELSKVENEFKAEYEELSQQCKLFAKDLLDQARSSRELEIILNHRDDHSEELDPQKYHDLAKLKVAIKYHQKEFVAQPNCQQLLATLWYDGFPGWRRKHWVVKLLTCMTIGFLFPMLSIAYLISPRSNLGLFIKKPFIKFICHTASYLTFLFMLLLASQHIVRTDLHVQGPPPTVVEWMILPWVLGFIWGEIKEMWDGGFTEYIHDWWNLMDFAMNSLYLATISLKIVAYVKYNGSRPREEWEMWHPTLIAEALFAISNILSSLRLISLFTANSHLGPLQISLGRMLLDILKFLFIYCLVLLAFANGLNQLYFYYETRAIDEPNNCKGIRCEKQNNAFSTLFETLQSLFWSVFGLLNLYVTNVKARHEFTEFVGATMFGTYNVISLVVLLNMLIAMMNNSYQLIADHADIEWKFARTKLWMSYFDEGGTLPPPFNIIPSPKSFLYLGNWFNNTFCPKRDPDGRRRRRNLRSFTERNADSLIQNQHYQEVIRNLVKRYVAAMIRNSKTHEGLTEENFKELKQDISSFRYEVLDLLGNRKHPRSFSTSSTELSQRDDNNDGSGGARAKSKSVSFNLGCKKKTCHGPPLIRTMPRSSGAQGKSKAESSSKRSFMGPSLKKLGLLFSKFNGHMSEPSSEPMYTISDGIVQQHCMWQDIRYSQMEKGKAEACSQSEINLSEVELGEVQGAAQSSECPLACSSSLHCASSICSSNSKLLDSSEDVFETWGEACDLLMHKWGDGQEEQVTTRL
Description: Whole-cell patch clamp, block of LaCl3-activated TRPC5 inward current. In kind it is cell-based. As to conditions: TRPC5-expressing HEK293 TREx cells, 80 μM LaCl3, inward current, IC50 estimated from 5 μM and 500 nM, read-out: hTRPC5 Patch La3+ Inwd (nM) (All Batches). In a few lines:
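Whole-cell recordings in induced TRPC5-expressing HEK293 TREx cells, holding −40 mV, 400 ms ramps −120 to +100 mV every 5 s; current activated by 80 μM external LaCl3 and 1,400 nM pipette free Ca2+ (pH 7.2 internal, 7.4 external). Inward block at −80 mV, with LaCl3 present; IC50 estimated from testing at 5 μM and 500 nM.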
With `Cn1c(=O)c2c(nc(Oc3cccc(OC(F)(F)F)c3)n2Cc2ccc(Cl)cc2)n(C)c1=O` [Compound 142, 7-(4-chlorobenzyl)-1,3-dimethyl-8-(3-(trifluoromethoxy)phenoxy)-1H-purine-2,6(3H,7H)-dione], the IC50 was < 100 nM.
Still for that read-out and setting: for `CCc1coc(CSc2nc3c(c(=O)n(C)c(=O)n3C)n2Cc2ccc(C)cc2)n1` [Compound 133, 8-((4-ethyloxazol-2-yl)methylthio)-1,3-dimethyl-7-(4-methylbenzyl)-1H-purine-2,6(3H,7H)-dione] the value was 100 to 500 nM; for `CCOc1nc2c(c(=O)n(C)c(=O)n2C)n1Cc1cccc(Cl)c1` [Compound 154, 7-(3-Chlorobenzyl)-8-ethoxy-1,3-dimethyl-1H-purine-2,6(3H,7H)-dione], 2000 to 10000 nM; for `Cn1c(=O)c2c(nc(Oc3cccc(C#N)c3)n2Cc2cccc(Br)c2)n(C)c1=O` [Compound 112, 3-(7-(3-bromobenzyl)-1,3-dimethyl-2,6-dioxo-2,3,6,7-tetrahydro-1H-purin-8-yloxy)benzonitrile], 2000 to 10000 nM.
Same read-out and setting: for `COCCCSc1nc2c(c(=O)n(C)c(=O)n2C)n1Cc1cccc(Br)c1` [Compound 19, 7-(3-bromobenzyl)-8-(3-methoxypropylthio)-1,3-dimethyl-1H-purine-2,6(3H,7H)-dione] the value was 100 to 500 nM.
Turning to `Cn1c(=O)c2c(nc(Oc3cccc(C(F)(F)F)c3)n2S(=O)(=O)c2ccc(Cl)cc2)n(C)c1=O` [Compound 190], the IC50 was 2000 to 10000 nM.
On the same count and under the same terms, in the case of `COc1cc(Cn2c(Oc3cccc(OC(F)(F)F)c3)nc3c2c(=O)n(C)c(=O)n3C)ccc1Cl` [Compound 205, 7-(4-chloro-3-methoxybenzyl)-1,3-dimethyl-8-(3-(trifluoromethoxy)phenoxy)-1H-purine-2,6(3H,7H)-dione] it was 100 to 500 nM; in that of `CN(C)Cc1cccc(Oc2nc3c(c(=O)n(C)c(=O)n3C)n2Cc2cccc(Cl)c2)c1` [Compound 153, 7-(3-Chlorobenzyl)-8-(3-((dimethylamino)methyl)phenoxy)-1,3-dimethyl-1H-purine-2,6(3H,7H)-dione hydrochloride], 2000 to 10000 nM; in that of `C=C(CC(=O)OCC)c1nc2c(c(=O)n(C)c(=O)n2C)n1Cc1cccc(Br)c1` [Compound 123, ethyl 3-(7-(3-bromobenzyl)-1,3-dimethyl-2,6-dioxo-2,3,6,7-tetrahydro-1H-purin-8-yl)but-3-enoate], 1000 to 2000 nM.
The same measure, in the same setting: in the case of `C[C@H]1CCCN1c1ncc(-c2cccc(NC(=O)Cc3nc4c(c(=O)n(C)c(=O)n4C)n3Cc3cccc(Br)c3)n2)cn1` [Compound 30] it was 2000 to 10000 nM.
As for `CCc1coc(CSc2nc3c(c(=O)n(C)c(=O)n3C)n2Cc2ccc(Br)cc2)n1` [Compound 157, 7-(4-bromobenzyl)-8-((4-ethyloxazol-2-yl)methylthio)-1,3-dimethyl-1H-purine-2,6(3H,7H)-dione], the IC50 is < 100 nM.
On the same count and under the same terms, in the case of `CCc1coc(CSc2nc3c(c(=O)n(C)c(=O)n3C)n2Cc2ccc(C(C)=O)cc2)n1` [Compound 181, 7-(4-acetylbenzyl)-8-((4-ethyloxazol-2-yl)methylthio)-1,3-dimethyl-1H-purine-2,6(3H,7H)-dione] it was 2000 to 10000 nM.
On the same count and under the same terms, for `CCc1coc(CSc2nc3c(c(=O)n(C)c(=O)n3C)n2Cc2ccc(OC)cc2)n1` [Compound 131, 8-((4-ethyloxazol-2-yl)methylthio)-7-(4-methoxybenzyl)-1,3-dimethyl-1H-purine-2,6(3H,7H)-dione] the value was 500 to 1000 nM.
Still for that read-out and setting: for `CCCOCCc1nc2c(c(=O)n(C)c(=O)n2C)n1Cc1cccc(Br)c1` [Compound 42, 7-(3-Bromobenzyl)-1,3-dimethyl-8-(2-propoxyethyl)-1H-purine-2,6(3H,7H)-dione] the value was 1000 to 2000 nM; for `CCCN(C)CCc1nc2c(c(=O)n(C)c(=O)n2C)n1Cc1cccc(Br)c1` [Compound 48, 7-(3-Bromobenzyl)-1,3-dimethyl-8-(2-(methyl(propyl)amino)ethyl)-1H-purine-2,6(3H,7H)-dione hydrochloride], 2000 to 10000 nM; for `CCOC(=O)/C=C/c1nc2c(c(=O)n(C)c(=O)n2C)n1Cc1cccc(Br)c1` [Compound 36], 2000 to 10000 nM.
Consider `CCc1coc(CSc2nc3c(c(=O)n(C)c(=O)n3C)n2Cc2cccc(Cl)c2)n1` [Compound 134, 7-(3-chlorobenzyl)-8-((4-ethyloxazol-2-yl)methylthio)-1,3-dimethyl-1H-purine-2,6(3H,7H)-dione], for which the IC50 is 100 to 500 nM.
Still for that read-out and setting: for `CCCOCCc1nc2c(c(=O)n(C)c(=O)n2C)n1Cc1cccc(OC(F)(F)F)c1` [Compound 88] the value was 500 to 1000 nM.
Still for that read-out and setting: in the case of `CCOCCCc1nc2c(c(=O)n(C)c(=O)n2C)n1Cc1cccc(Br)c1` [Compound 54, 7-(3-bromobenzyl)-8-(3-ethoxypropyl)-1,3-dimethyl-1H-purine-2,6(3H,7H)-dione] it was 2000 to 10000 nM; in that of `Cn1c(=O)c2c(nc(Oc3cccc(CO)c3)n2Cc2cccc(Cl)c2)n(C)c1=O` [Compound 140], 2000 to 10000 nM; in that of `Cn1c(=O)c2c(nc(Oc3cccc(OC(F)(F)F)c3)n2Cc2cccc(Br)c2)n(C)c1=O` [Compound 115, 7-(3-bromobenzyl)-1,3-dimethyl-8-(3-(trifluoromethoxy)phenoxy)-1H-purine-2,6(3H,7H)-dione], < 100 nM.
Take `CCCOCCc1nc2c(c(=O)n(C)c(=O)n2C)n1Cc1cccc(C)c1` [Compound 90]: the IC50 is 1000 to 2000 nM.
On the same count and under the same terms, for `CC(c1ccc(Cl)cc1)n1c(Oc2cccc(C(F)(F)F)c2)nc2c1c(=O)n(C)c(=O)n2C` (stereo not shown) [Compound 187, 7-(1-(4-chlorophenyl)ethyl)-1,3-dimethyl-8-(3-(trifluoromethyl)phenoxy)-1H-purine-2,6(3H,7H)-dione] the value was 100 to 500 nM; for `Cc1coc(-c2cccc(Oc3nc4c(c(=O)n(C)c(=O)n4C)n3Cc3cccc(Br)c3)c2)n1` [Compound 103, 7-(3-bromobenzyl)-1,3-dimethyl-8-(3-(4-methyloxazol-2-yl)phenoxy)-1H-purine-2,6(3H,7H)-dione], 2000 to 10000 nM; for `CCOC(=O)c1cccc(Cc2nc3c(c(=O)n(C)c(=O)n3C)n2Cc2cccc(Br)c2)c1` [Compound 102, ethyl 3-((7-(3-bromobenzyl)-1,3-dimethyl-2,6-dioxo-2,3,6,7-tetrahydro-1H-purin-8-yl)methyl)benzoate], 1000 to 2000 nM.
Same read-out and setting: for `CCCOCCc1nc2c(c(=O)n(C)c(=O)n2C)n1Cc1ccc(C(N)=O)cc1` [Compound 149] the value was 2000 to 10000 nM.
Same read-out and setting: for `Cn1c(=O)c2c(nc(Oc3cccc(F)c3)n2Cc2cccc(Br)c2)n(C)c1=O` [Compound 111, 7-(3-bromobenzyl)-8-(3-fluorophenoxy)-1,3-dimethyl-1H-purine-2,6(3H,7H)-dione] the value was 1000 to 2000 nM.

For another test, the target named is T2, hTRPC4 (Homo sapiens, UniProt Q9UBN4).
T2 sequence (Q9UBN4 1-977): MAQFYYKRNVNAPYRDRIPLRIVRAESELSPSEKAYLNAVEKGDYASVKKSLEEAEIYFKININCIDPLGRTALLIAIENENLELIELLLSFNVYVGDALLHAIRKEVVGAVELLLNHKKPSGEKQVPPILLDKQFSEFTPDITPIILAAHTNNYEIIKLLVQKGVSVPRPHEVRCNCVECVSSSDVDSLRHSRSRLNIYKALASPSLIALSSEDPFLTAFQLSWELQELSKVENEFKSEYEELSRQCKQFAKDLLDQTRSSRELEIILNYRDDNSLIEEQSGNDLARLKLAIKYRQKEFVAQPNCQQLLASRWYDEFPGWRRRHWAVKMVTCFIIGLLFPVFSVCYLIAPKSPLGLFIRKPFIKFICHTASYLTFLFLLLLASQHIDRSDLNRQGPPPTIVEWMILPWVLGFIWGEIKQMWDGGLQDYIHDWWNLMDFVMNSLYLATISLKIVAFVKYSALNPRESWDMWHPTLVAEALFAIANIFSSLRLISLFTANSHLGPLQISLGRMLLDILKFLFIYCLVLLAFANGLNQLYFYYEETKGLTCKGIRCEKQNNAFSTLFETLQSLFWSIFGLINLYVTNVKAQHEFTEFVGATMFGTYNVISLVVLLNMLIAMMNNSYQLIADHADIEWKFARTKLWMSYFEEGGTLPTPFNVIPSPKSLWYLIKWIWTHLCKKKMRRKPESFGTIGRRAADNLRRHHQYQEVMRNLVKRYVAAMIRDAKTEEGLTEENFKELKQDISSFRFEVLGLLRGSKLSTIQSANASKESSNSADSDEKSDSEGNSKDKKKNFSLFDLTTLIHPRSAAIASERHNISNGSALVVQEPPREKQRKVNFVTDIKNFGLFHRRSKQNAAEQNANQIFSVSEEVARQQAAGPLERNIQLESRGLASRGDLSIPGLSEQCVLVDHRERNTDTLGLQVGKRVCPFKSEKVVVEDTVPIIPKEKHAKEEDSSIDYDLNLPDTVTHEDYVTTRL
Description: Whole-cell patch clamp, block of TRPC4 inward current. In kind it is cell-based. As to conditions: read-out: hTRPC4 Patch Inwd (nM) (All Batches). For orientation: Patch clamp records ionic current or voltage across a cell membrane.
For `Cn1c(=O)c2c(nc(Oc3cccc(OC(F)(F)F)c3)n2Cc2ccc(Cl)cc2)n(C)c1=O` [Compound 142, 7-(4-chlorobenzyl)-1,3-dimethyl-8-(3-(trifluoromethoxy)phenoxy)-1H-purine-2,6(3H,7H)-dione], the IC50 is < 100 nM.
